Reference: article PMC6308302, “Identification of Pharmacokinetic Markers for Guanxin Danshen Drop Pills in Rats by Combination of Pharmacokinetics, Systems Pharmacology, and Pharmacodynamic Assays” (Frontiers in Pharmacology, 2018)
Entries after “also recorded” stand apart in the source; their conditions may differ. Marks after values point to notes of the source that are not given here.

What was measured:
[1] = Aqueous solubility test (vortexing in water); format: physicochemical; conditions: water at 25 °C
Method: Aqueous solubility (S) test of the 17 ingredients was performed by vortexing 10 mg of each ingredient in […] water in a test tube at ambient temperature and 1 atm. After vortexing for 5 min, if the solution is clear, the tested object will be considered as soluble in water. In silico assessment of the physicochemical properties governing permeation and intestinal absorption was carried out for the 17 ingredients studied. Theory aqueous solubility (S) was calculated with ALOGPS 2.1 online software via the Virtual Computational Chemistry Laboratory service (Chemoinformatics Group, Neuherberg, Germany) (VCCLAB^1). The octanol–water partition coefficient (cLogP), the total hydrogen bond count (donors and acceptors), and topological polar surface area (TPSA) were determined using the Molinspiration Property Calculator (Molinspiration Cheminformatics, Bratislava, Slovak Republic^2). Lipinski’s rule of 5 was used to predict the permeability of the compound ([Lipinski et al., 2001]).

[2] = Multiple component PK study in rat plasma after p.o. GDDP (HPLC-MS); conditions: for determination in rat plasma at the planned successive PK time points / detection in rat plasma: GDDP 0.8 g/kg p.o.; for determination in rat plasma at the planned successive PK time points: 5, 10, 15, 30, 45, 60, and 120 min, LOQ 1.0–1.4 ng/mL; for detection in rat plasma: at 5, 10, 15, 30, 45, or 60 min, LOD 0.5–0.7 ng/mL
Caco-2 cell monolayers = conditions: ref Lu et al., 2008, Liu et al., 2009, Hu et al., 2014, Bowles et al., 2017, cited from earlier work; for Papp(apical→basolateral) / Papp(basolateral→apical): Caco-2 cell monolayers, from literature; for apparent permeability in Caco-2 cell monolayers: previous results
[3] = tested on: isoprenaline-induced MI in mice; assay: In vivo anti-MI study: isoprenaline-induced myocardial injury (ECG, H&E histology); conditions: for ECG (lead II) findings on the fifth day of the trial: 40 mg/kg p.o., isoprenaline 5 mg/kg on days 4 and 5
[4] = Stability tests in rat plasma (QC samples, HPLC-MS); conditions: n=5
Excerpt: Accuracy and precision were expressed by relative error (RE) and coefficient of variance (RSD), respectively.

[5] = Sprague-Dawley, rat, plasma, po, 0.4 g/kg
[6] = Sprague-Dawley, rat, plasma, po, 0.4 g/kg, Cmax, rat plasma, GDDP 0.4 g/kg p.o. (Low dose group), n=3
[7] = Sprague-Dawley, rat, plasma, po, 0.8 g/kg
[8] = Sprague-Dawley, rat, plasma, po, 0.8 g/kg, Cmax (high / low plasma drug concentrations), rats, GDDP 0.4 and 0.8 g/kg p.o., classification
[9] = Sprague-Dawley, rat, plasma, po, 0.8 g/kg, Cmax, rat plasma, GDDP 0.8 g/kg p.o. (High dose group), n=3
[10] = Sprague-Dawley, rat, plasma, po, 0.8 g/kg, t1/2 β (fast / slow elimination type), rats, GDDP 0.4 and 0.8 g/kg p.o., classification
[11] = Sprague-Dawley, rat, plasma, po, 0.8 g/kg, t1/2 β, rat plasma, GDDP 0.8 g/kg p.o. (High dose group), n=3
[12] = rat plasma, GDDP 0.4 g/kg p.o. (Low dose group), n=3
[13] = rat plasma, GDDP 0.8 g/kg p.o. (High dose group), n=3
[14] = 24h in auto-sampler vials, spiked 2 ng/mL
[15] = 24h in auto-sampler vials, spiked 400 ng/mL
[16] = 24h in auto-sampler vials, spiked 1600 ng/mL
[17] = Placing plasma for 6h at 4°C, spiked 2 ng/mL
[18] = Placing plasma for 6h at 4°C, spiked 400 ng/mL
[19] = Placing plasma for 6h at 4°C, spiked 1600 ng/mL
[20] = three freeze-thaw cycles, rat plasma, spiked 2 ng/mL
[21] = three freeze-thaw cycles, rat plasma, spiked 400 ng/mL
[22] = three freeze-thaw cycles, rat plasma, spiked 1600 ng/mL
[23] = 40 mg/kg p.o. for 7 days, isoprenaline-induced MI

## Cc1coc2c1C(=O)C(=O)c1c-2ccc2c(C)cccc12 [TS I, tanshinone I]
[1]
  solubility in water (in words): insoluble
[2]
  determination in rat plasma at the planned successive PK time points: could be determined
  detection in rat plasma: could be detected
[2]; [5]
  AUC(0-inf): 125 ± 115 ng·h/mL
  AUC(0-t): 63 ± 49.5 ng·h/mL
  MRT inf: 27.3 ± 10.6 h
  MRT last: 9.93 ± 0.87 h
  Tmax: 1.25 ± 1.06 h
[2]; [6]
  Cmax: 6.1 ± 3.08 ng/mL
[2]; Sprague-Dawley, rat, plasma, po, 0.4 g/kg, t1/2 β, rat plasma, GDDP 0.4 g/kg p.o. (Low dose group), n=3
  half-life: 16.4 ± 8.87 h
[2]; [7]
  AUC(0-inf): 45.1 ± 20.6 ng·h/mL
  AUC(0-t): 40.1 ± 17.3 ng·h/mL
  MRT inf: 7.72 ± 2.17 h
  MRT last: 4.27 ± 1.62 h
  Tmax: 1.25 ± 0.66 h
[2]; [8]
  Cmax: < 10 ng/mL
[2]; [9]
  Cmax: 8.59 ± 3.18 ng/mL
[2]; [10]
  half-life: > 2.6 h
[2]; [11]
  half-life: 11.7 ± 4.78 h
[2]; [12]
  Cltot: 45.3 ± 41.8 mL/min/kg
[2]; [13]
  Cltot: 163 ± 59.8 mL/min/kg
Caco-2 cell monolayers
  Papp(apical→basolateral): 0.95^d ×10^-6 cm/s
  Papp(basolateral→apical): 11.27^d ×10^-6 cm/s
  apparent permeability in Caco-2 cell monolayers: ≥ 10^-6 cm/s
[3]; 40 mg/kg p.o. for 7 days, isoprenaline-induced MI, 40 mg/kg
  Histopathology of heart tissue (H&E): myocardial lysis, architecture disorder, and loss of striations in heart tissue; also recorded: myocardial lysis, and architecture disorder, and loss of striations in heart tissue
[3]
  ECG (lead II) findings on the fifth day of the trial: T waves reversed or decreased
[4]; [14]
  Stability: Measured: 2.02 ± 0.32 ng/mL
  Stability: RE: 0.78%
[4]; [15]
  Stability: Measured: 470.56 ± 54.19 ng/mL
  Stability: RE: 17.64%
[4]; [16]
  Stability: Measured: 1562.58 ± 145.90 ng/mL
  Stability: RE: -2.34%
[4]; [17]
  Stability: Measured: 2.22 ± 0.30 ng/mL
  Stability: RE: 10.90%
[4]; [18]
  Stability: Measured: 469.39 ± 24.45 ng/mL
  Stability: RE: 17.35%
[4]; [19]
  Stability: Measured: 1771.82 ± 333.46 ng/mL
  Stability: RE: 10.74%
[4]; [20]
  Stability: Measured: 2.09 ± 0.20 ng/mL
  Stability: RE: 4.39%
[4]; [21]
  Stability: Measured: 459.00 ± 25.68 ng/mL
  Stability: RE: 14.75%
[4]; [22]
  Stability: Measured: 1482.38 ± 283.06 ng/mL
  Stability: RE: -7.32%

## Cc1coc2c1C(=O)C(=O)c1c-2ccc2c1CCCC2(C)C [TS IIA, tanshinone (TS) IIA]
[1]
  solubility in water (in words): insoluble
[2]
  determination in rat plasma at the planned successive PK time points: could be determined
  detection in rat plasma: could be detected
[2]; [5]
  AUC(0-inf): 71.7 ± 47.4 ng·h/mL
  AUC(0-t): 23.5 ± 6.4 ng·h/mL
  MRT last: 5.4 ± 0.41 h
[2]; [6]
  Cmax: 4.04 ± 0.72 ng/mL
[2]; [7]
  AUC(0-inf): 90.7 ± 52.9 ng·h/mL
  AUC(0-t): 31.1 ± 1.74 ng·h/mL
  MRT last: 5.23 ± 0.04 h
  Tmax: 0.33 ± 0.14 h
[2]; [8]
  Cmax: < 10 ng/mL
[2]; [9]
  Cmax: 9.21 ± 0.78 ng/mL
[2]; [10]
  half-life: > 2.6 h
[2]; [11]
  half-life: 18.3 ± 13 h
[2]; [12]
  Cltot: 382.2 ± 252.5 mL/min/kg
  MRT0-∞: 27.09 ± 16.67 h
  Tmax: 0.25 ± 0.00 h
  t1/2 β: 18.14 ± 12.52 h
[2]; [13]
  Cltot: 585.2 ± 304.2 mL/min/kg
  MRT0-∞: 26.52 ± 19.83 h
Caco-2 cell monolayers
  Papp(apical→basolateral): 0.98^d ×10^-6 cm/s
  Papp(basolateral→apical): 11.81^d ×10^-6 cm/s
  apparent permeability in Caco-2 cell monolayers: ≥ 10^-6 cm/s
[3]; 40 mg/kg p.o. for 7 days, compared with model group, P < 0.05
  ST segment elevations on the seventh day of the trial: significantly decreased
[3]; [23]
  Histopathology of heart tissue (H&E): edema, inflammatory infiltration, and loss of striations in heart tissue
  anti-MI effect (overall conclusion): mild therapeutic effect
[3]
  ECG (lead II) findings on the fifth day of the trial: ST segment elevated
[4]; [14]
  Stability: Measured: 2.25 ± 0.34 ng/mL
  Stability: RE: 12.73%
[4]; [15]
  Stability: Measured: 464.77 ± 53.87 ng/mL
  Stability: RE: 16.19%
[4]; [16]
  Stability: Measured: 1714.76 ± 174.65 ng/mL
  Stability: RE: 7.17%
[4]; [17]
  Stability: Measured: 2.14 ± 0.11 ng/mL
  Stability: RE: 6.84%
[4]; [18]
  Stability: Measured: 462.76 ± 13.70 ng/mL
  Stability: RE: 15.69%
[4]; [19]
  Stability: Measured: 1933.47 ± 224.22 ng/mL
  Stability: RE: 20.84%
[4]; [20]
  Stability: Measured: 2.10 ± 0.23 ng/mL
  Stability: RE: 4.94%
[4]; [21]
  Stability: Measured: 468.67 ± 61.03 ng/mL
  Stability: RE: 19.13%
[4]; [22]
  Stability: Measured: 1830.46 ± 289.25 ng/mL
  Stability: RE: 14.40%
